According to patent US6391599B1, “Sham-sensitive terminal oxidase gene from xylose-fermenting yeast” (priority 2000, dated 2002):
“Also recorded” adds a separate entry of the source.

Experiments:
Assay type in all cases: cell-based, Pichia stipitis
Set-up in all cases: key to Rotenone sensitivity (rotenone-insensitive respiration): +: Cells sustained rotenone-insensitive respiration; −: Cells could not sustain rotenone-insensitive respiration
[1] = tested on: P. stipitis FPL-Shi21 (cyc1-Δ); experiment: Respiration measurement (oxygen uptake) with inhibitor; settings: for Effect on respiration: FPL-Shi21 (cyc1Δ); for Rotenone sensitivity (rotenone-insensitive respiration): 0.1 mM rotenone, FPL-Shi21; for Sensitivity of respiration to rotenone (in words): cyc1Δ mutant
Method: (§1) P. stipitis strains were grown overnight in YNBUP-xylose (2%) medium under aerobic conditions. Then half of the overnight-grown cells were transferred to 25 mL fresh medium to grow for 16 h to mid-log phase under the same conditions. The cells were harvested and washed in an assay buffer containing 20 mM potassium phosphate (pH7.0) and 5 mM magnesium chloride. The cells were resuspended in 500 μL of the same buffer for assays. Oxygen uptake was measured by using a Clark type of electrode (Yellow Spring Instrument). The assay was performed in an assay buffer containing 20 mM potassium phosphate, 5 mM magnesium chloride, plus xylose or glucose (2%) as the substrate at 30° C. The assay buffer was saturated with air before the experiment. Ten to fifty μL of cells were injected into the assay chamber and the total reaction volume was 2 mL. Antimycin A, SHAM or rotenone was dissolved in dimethyl formamide while potassium cyanide was dissolved in water. Inhibitor solution was injected into the chamber after adding the cells.

[2] = tested on: P. stipitis FPL-Shi31 (sto1-Δ); experiment: as above; settings: for Rotenone sensitivity (rotenone-insensitive respiration): 0.1 mM rotenone, FPL-Shi31; for Sensitivity of respiration to rotenone (in words): sto1Δ mutant
Method: as §1

[3] = tested on: P. stipitis wild-type CBS 6054; experiment: Respiration measurement (oxygen uptake, Clark type electrode) with inhibitor; settings: 0.1 mM rotenone
Method: as §1

[4] = tested on: P. stipitis FPL-UC7 (ura3-3); experiment: Respiration measurement (oxygen uptake) with inhibitor; settings: for Rotenone sensitivity (rotenone-insensitive respiration): 0.1 mM rotenone
Method: as §1

## O=C(NO)c1ccccc1O [SHAM, salicyl hydroxymate]
[1]
  Effect on respiration: completely blocked
[2]; 4 mM SHAM, sto1Δ cells pre-grown on YNB-xylose (2%)
  Effect on respiration trace: did not show any change

## C=C(C)[C@H]1Cc2c(ccc3c2O[C@@H]2COc4cc(OC)c(OC)cc4[C@@H]2C3=O)O1 [rotenone]
[3]; glucose-grown cells, CBS 6054
  Rotenone sensitivity (rotenone-insensitive respiration): −
  Sensitivity of respiration to rotenone (in words): could not sustain any respiration; also recorded: rotenone-sensitive
  Time after injection until cells died and floated in the chamber: ≤ 1 min
[3]; xylose-grown cells
  Oxygen consumption rate, +rotenone: 4.6 ± 0.2 µM/mg/h
[3]; xylose-grown cells, CBS 6054
  Rotenone sensitivity (rotenone-insensitive respiration): +
  Sensitivity of respiration to rotenone (in words): respiration was sustained; also recorded: insensitivity to rotenone
[1]; glucose-grown cells
  Rotenone sensitivity (rotenone-insensitive respiration): −
  Sensitivity of respiration to rotenone (in words): rotenone-sensitive
[1]; xylose-grown cells
  Rotenone sensitivity (rotenone-insensitive respiration): −
  Sensitivity of respiration to rotenone (in words): rotenone-sensitive
[2]; glucose-grown cells
  Rotenone sensitivity (rotenone-insensitive respiration): −
  Sensitivity of respiration to rotenone (in words): rotenone-sensitive
[2]; xylose-grown cells
  Rotenone sensitivity (rotenone-insensitive respiration): −
  Sensitivity of respiration to rotenone (in words): rotenone-sensitive
[4]; glucose-grown cells
  Rotenone sensitivity (rotenone-insensitive respiration): −
  Sensitivity of respiration to rotenone (in words): rotenone-sensitive
[4]; xylose-grown cells
  Rotenone sensitivity (rotenone-insensitive respiration): +
  Sensitivity of respiration to rotenone (in words): insensitivity to rotenone

## antimycin A
[1]
  Effect on respiration: insensitivity
[2]; 10 μM antimycin A, sto1Δ mutant cells
  Effect on respiration: respiration dropped to zero
